{
  "source": "patent US8980926B2",
  "about": "“2-aminoindole compounds and methods for the treatment of malaria” (Genzyme Corporation, priority 2009, dated 2015)",
  "tested_on": "P. falciparum strain 3D7",
  "test": "In vitro potency against P. falciparum strain 3D7 (SYBR green/DAPI)",
  "assay_type": "cell-based",
  "details": "Plasmodium falciparum, reductions in parasitemia, read-out: IC50 values",
  "data": [
    {"smiles": "CC(C)Oc1ccc2c(c1)C(O)(c1ccccc1)C(N)=N2", "note": "(stereo not shown) [Compound 76]", "values": [
      {"measurement": "IC50", "result": "100 to 500", "unit": "nM"}
    ]},
    {"smiles": "CN(C)c1ccc(F)cc1C1(O)C(N)=Nc2ccc(Cl)cc21", "note": "(stereo not shown) [Compound 192]", "values": [
      {"measurement": "IC50", "result": "1 to 100", "unit": "nM"}
    ]},
    {"smiles": "NC1=Nc2ccc(Cl)cc2C1(O)c1cc(Cl)ccc1F", "note": "(stereo not shown) [Compound 186]", "values": [
      {"measurement": "IC50", "result": "1 to 100", "unit": "nM"}
    ]},
    {"smiles": "NC1=Nc2ccc(Br)cc2C1(O)Cc1ccccc1", "note": "(stereo not shown) [Compound 124]", "values": [
      {"measurement": "IC50", "result": "100 to 500", "unit": "nM"}
    ]},
    {"smiles": "NC1=Nc2ccc(Cl)cc2C1(O)CC1CCCCC1", "note": "(stereo not shown) [Compound 43]", "values": [
      {"measurement": "IC50", "result": "1 to 100", "unit": "nM"}
    ]},
    {"smiles": "Cc1ccccc1C1(O)C(N)=Nc2ccc(Cl)cc21", "note": "(stereo not shown) [Compound 71]", "values": [
      {"measurement": "IC50", "result": "1 to 100", "unit": "nM"}
    ]},
    {"smiles": "NC1=Nc2ccc(Cl)cc2C1(O)C1CCCCC1", "note": "(stereo not shown) [Compound 116]", "values": [
      {"measurement": "IC50", "result": "100 to 500", "unit": "nM"}
    ]},
    {"smiles": "COc1ccc(OC2CC2)c(C2(O)C(N)=Nc3ccc(Cl)cc32)c1", "note": "(stereo not shown) [Compound 165]", "values": [
      {"measurement": "IC50", "result": "1 to 100", "unit": "nM"}
    ]},
    {"smiles": "CCSc1ccc(OC)cc1C1(O)C(N)=Nc2ccc(Cl)cc21", "note": "(stereo not shown) [Compound 196]", "values": [
      {"measurement": "IC50", "result": "1 to 100", "unit": "nM"}
    ]},
    {"smiles": "CCOc1ccc(C2(O)C(N)=Nc3ccc(Cl)cc32)c(Cl)c1", "note": "(stereo not shown) [Compound 260]", "values": [
      {"measurement": "IC50", "result": "100 to 500", "unit": "nM"}
    ]},
    {"smiles": "NC1=Nc2ccc(Cl)cc2C1(O)CCc1ccccc1", "note": "(stereo not shown) [Compound 74]", "values": [
      {"measurement": "IC50", "result": "100 to 500", "unit": "nM"}
    ]},
    {"smiles": "COc1cccc(C2(O)C(N)=Nc3ccccc32)c1", "note": "(stereo not shown) [Compound 7]", "values": [
      {"measurement": "IC50", "result": "100 to 500", "unit": "nM"}
    ]},
    {"smiles": "CCOc1ccc(F)c(C2(O)C(N)=Nc3ccc(Cl)cc32)c1", "note": "(stereo not shown) [Compound 209]", "values": [
      {"measurement": "IC50", "result": "1 to 100", "unit": "nM"}
    ]}
  ]
}
